Columns and labels:
Ames test (mutagenicity) = assay: Ames test (mutagenicity)
Excerpt: (§1) Another problem posed consisted in obtaining products having all the advantages described above without the disadvantages frequently encountered during the study of products of the chalcone family. These disadvantages are (i) the problems of cardiac toxicity, which can be evaluated by measuring the inhibition of Herg receptors, (ii) finally, and to a lesser degree, the problems of mutagenicity, which can be evaluated in particular in the Ames test.

Tubulin = target: T1, Tubulin (Sus scrofa, UniProt P02550+P02554); assay: Inhibition of polymerization of tubulin (turbidimetry); format: biochemical; conditions: pig brain tubulin 10 μM, turbidity at 350 nm, 37° C.
T1 construct: Tubulin is purified from pig brains according to published methods; from tissue; host or cells: pig brain
T1 sequence (P02550 whole entry): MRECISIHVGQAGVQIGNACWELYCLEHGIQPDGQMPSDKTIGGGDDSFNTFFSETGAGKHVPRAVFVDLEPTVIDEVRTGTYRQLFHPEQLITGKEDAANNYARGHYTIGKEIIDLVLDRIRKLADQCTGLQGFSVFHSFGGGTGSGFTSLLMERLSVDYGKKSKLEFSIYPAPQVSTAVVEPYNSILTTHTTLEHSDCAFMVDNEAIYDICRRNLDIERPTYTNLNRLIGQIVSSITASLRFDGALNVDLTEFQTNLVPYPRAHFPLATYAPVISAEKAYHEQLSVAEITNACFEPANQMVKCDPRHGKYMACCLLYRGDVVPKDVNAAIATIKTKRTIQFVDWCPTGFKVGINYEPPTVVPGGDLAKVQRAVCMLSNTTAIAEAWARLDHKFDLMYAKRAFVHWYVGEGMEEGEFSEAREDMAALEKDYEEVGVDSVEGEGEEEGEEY
T1 sequence (P02554 whole entry): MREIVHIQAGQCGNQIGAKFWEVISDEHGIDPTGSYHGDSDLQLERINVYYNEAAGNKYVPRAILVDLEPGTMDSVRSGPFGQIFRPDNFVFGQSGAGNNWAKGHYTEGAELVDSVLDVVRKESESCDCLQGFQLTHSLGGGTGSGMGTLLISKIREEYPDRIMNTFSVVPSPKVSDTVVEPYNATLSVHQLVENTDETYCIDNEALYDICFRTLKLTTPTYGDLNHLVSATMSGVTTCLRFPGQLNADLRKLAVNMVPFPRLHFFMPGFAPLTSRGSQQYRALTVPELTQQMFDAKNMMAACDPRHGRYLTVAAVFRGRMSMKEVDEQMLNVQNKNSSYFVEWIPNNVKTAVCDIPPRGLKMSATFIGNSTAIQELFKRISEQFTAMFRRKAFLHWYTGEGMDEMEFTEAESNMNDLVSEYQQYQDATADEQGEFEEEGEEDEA
Description: Tubulin is purified from pig brains according to published methods (Shelanski et al., Proc. Natl. Acad. Sci. USA, 70, 765-768. Weingarten et al., 1975, Proc. Natl. Acad. Sci. USA, 72, 1858-1862). Briefly, the brains are ground and centrifuged in an extraction buffer. The tubulin contained in the supernatant of the extract undergoes two successive cycles of polymerization at 37° C. and depolymerization at 4° C., before being separated from the MAPs (Microtubule Associated Proteins) by chromatography on a phosphocellulose P11 column (Whatman). The tubulin thus isolated is more than 95% pure. It is stored in a buffer called RB/2 30% glycerol whose composition is 50 mM MES-NaOH [2-(N-morpholino)ethanesulfonic acid], pH 6.8; 0.25 mM MgCl2; 0.5 mM EGTA; 30% glycerol (v/v), 0.2 mM GTP (guanosine-5′-triphosphate).
The polymerization of tubulin to microtubules is monitored by turbidimetry as follows: the tubulin is adjusted to a concentration of 10 μM (1 mg/ml) in RB/2 30% glycerol buffer to which 1 mM GTP and 6 mM MgCl2 are added. The polymerization is triggered by an increase in temperature from 6° C. to 37° C. in a cuvette having an optical path length of 1 cm, placed in a UVIKON 931 spectrophotometer (Kontron) equipped with a thermostated cuvette holder. The increase in the turbidity of the solution is monitored at 350 nm.
The compounds of this invention are dissolved at 10 mM in DMSO and added at variable concentrations (0.5 to 10 μM) to the tubulin solution before polymerization. The IC50 is defined as the concentration of compound which inhibits the rate of polymerization by 50%.

HDMEC cells = assay: Inhibition of proliferation of endothelial cells HDMEC ([14C]thymidine incorporation); format: cell-based; conditions: Homo sapiens, Endothelial cell, 48 hours
Description: The evaluation of the detachment of the endothelial cells in vitro is determined in the following manner. HDMEC cells (Human Dermal Microvascular Endothelial Cells, Promocell, c-122102) are cultured in an ECGM-MV medium which contains 5% foetal calf serum, growth factors (EGF 10 ng/ml, hydrocortisone 1 μg/ml, 0.4% growth supplement with heparin) and antibiotics (amphoteracin 50 ng/ml, gentamycin 50 μg/ml). For the detachment test, the HDMECs are inoculated at 5 000 cells in clear-bottomed 96-well plates (Costar) precoated with fibronectin (10 μg/ml) or vitronectin (1 μg/ml) or gelatin. Twenty-four hours later, the culture medium is replaced with ECGM-MV 0.1% BSA medium containing the products indicated. […] The fluorescence of the cells which remain attached to the substratum of the well is counted using a fluorimeter, Spectrafluor Plus (Tecan excitation 485 nm, and emission 535 nm). The data are the mean of six different samples and are expressed as the percentage of the control (untreated cells).
The proliferation of HeLa or HDMEC cells is evaluated by measuring the incorporation of [^14C]thymidine in the following manner. […] [^14C]Thymidine (0.1 μCi/well) and the products to be evaluated are then added. […] 48 hours after incubation at 37° C., the radioactivity incorporated into the cells is measured by counting the plate in a TR1-LUX counter (Wallac). […]

HeLa cells = assay: Inhibition of proliferation of HeLa tumor cells ([14C]thymidine incorporation); format: cell-based; conditions: Homo sapiens, 48 hours, read-out: Inhibition of cell proliferation IC50, HeLa
Description: The proliferation of HeLa or HDMEC cells is evaluated by measuring the incorporation of [^14C]thymidine in the following manner. The HeLa cells (epithelial tumor cells of human origin) are cultured in a DMEM medium (Gibco) which contains 10% of foetal calf serum and antibiotics (1% penicillin, 1% streptomycin). To carry out the proliferation test, the cells are inoculated into 96-well Cytostar microplates (Amersham), at the rate of 5000 cells per well. [^14C]Thymidine (0.1 μCi/well) and the products to be evaluated are then added. Variable concentrations of products of up to 10 μM are used; the DMSO (solvent used to solubilize the products) should not exceed 0.5% in the medium. 48 hours after incubation at 37° C., the radioactivity incorporated into the cells is measured by counting the plate in a TR1-LUX counter (Wallac). The IC50 is defined as the concentration of compound which reduces by 50% the radioactivity compared with an untreated control.

Herg receptors = Herg receptors (Homo sapiens, UniProt Q12809); assay: Inhibition of Herg receptors (cardiac toxicity)
Herg receptors, sequence (Q12809 whole entry): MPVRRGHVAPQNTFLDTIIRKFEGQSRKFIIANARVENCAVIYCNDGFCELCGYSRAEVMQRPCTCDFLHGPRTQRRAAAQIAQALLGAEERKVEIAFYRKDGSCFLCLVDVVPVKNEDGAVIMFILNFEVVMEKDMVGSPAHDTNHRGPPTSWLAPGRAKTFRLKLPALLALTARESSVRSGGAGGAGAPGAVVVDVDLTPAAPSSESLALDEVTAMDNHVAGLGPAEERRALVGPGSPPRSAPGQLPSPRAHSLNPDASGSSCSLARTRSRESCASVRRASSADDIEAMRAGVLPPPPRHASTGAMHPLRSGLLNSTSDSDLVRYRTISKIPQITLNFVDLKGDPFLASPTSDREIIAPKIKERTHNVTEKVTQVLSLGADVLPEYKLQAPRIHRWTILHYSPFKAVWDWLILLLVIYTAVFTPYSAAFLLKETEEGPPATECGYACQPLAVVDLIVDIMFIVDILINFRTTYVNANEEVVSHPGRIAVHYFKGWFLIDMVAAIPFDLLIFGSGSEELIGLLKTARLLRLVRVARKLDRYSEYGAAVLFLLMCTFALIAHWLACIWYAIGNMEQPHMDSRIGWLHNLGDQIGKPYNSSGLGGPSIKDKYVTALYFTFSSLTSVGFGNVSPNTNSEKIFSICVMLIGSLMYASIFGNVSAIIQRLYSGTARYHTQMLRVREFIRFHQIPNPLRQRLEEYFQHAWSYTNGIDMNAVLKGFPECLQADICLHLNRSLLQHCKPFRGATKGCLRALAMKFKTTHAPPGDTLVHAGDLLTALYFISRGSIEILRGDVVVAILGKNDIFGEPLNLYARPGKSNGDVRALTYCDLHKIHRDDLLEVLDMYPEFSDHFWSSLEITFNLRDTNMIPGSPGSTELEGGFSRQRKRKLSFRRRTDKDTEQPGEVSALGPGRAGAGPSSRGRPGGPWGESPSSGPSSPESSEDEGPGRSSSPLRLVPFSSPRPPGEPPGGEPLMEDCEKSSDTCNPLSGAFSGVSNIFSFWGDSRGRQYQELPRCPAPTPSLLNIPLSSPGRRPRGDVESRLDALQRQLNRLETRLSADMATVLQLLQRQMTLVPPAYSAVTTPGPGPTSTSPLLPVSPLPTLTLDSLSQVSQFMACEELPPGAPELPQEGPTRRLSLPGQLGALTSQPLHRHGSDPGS
Excerpt: as §1

[1] = tested on: C51 murine adenocarcinoma (colon tumor); assay: Evaluation of tumor necrosis in vivo; conditions: 35 mg/kg, intravenous injection, 24 hours after treatment, female BALB/c mice; listed as EXAMPLE 2
Excerpt: Mice are bred either by IFFA-CREDO (Domaine des Oncins, 69210 L'Arbresle, France) from a breed obtained by Jackson Laboratories, Bar Harbor, Me., USA, or alternatively by Charles River France (76410 St Aubin les Elbeuf, France) from a breed obtained by Charles River, USA. The mice initially weigh more than 18 g at the start of the trial. They have free access to food (UAR reference 113, Villemoisson, 91160 Epinay sur Orge, France) and to water.
The tumors used are currently transplanted in our laboratories. All these tumors are at the Frederick Cancer Research Facility (Frederick, Md., USA) at the repository of frozen tumors of the National Cancer Institute (NCI), or at the American Type Culture Collection (ATCC, Rockville, Md., USA).
The techniques for tumor transplantation, chemotherapy and data analysis have been presented in detail (Corbett et al., 1982a; Corbett et al., 1982b).
To summarize, the animals necessary for one experiment are assembled and bilaterally implanted on day 0 (zero).
The growth of solid tumors develops freely up to the desired size. […]
The samples are then treated, cut into sections, stained with haematoxylin, eosin and saffron yellow, and are then examined […]. The tumor necrosis (necrosis±degeneration) is evaluated microscopically using a scale of extent from 0 to 5: […]
The necrosis due to the experiment was evaluated on an untreated control. […]

Structure (SMILES)	Ames (Ames test (mutagenicity))	IC50 (Tubulin) [nM]	IC50 (HDMEC cells) [nM]	IC50 (HeLa cells) [nM]	melting point [°C]	IC50 (Herg receptors) [nM]	C51 colon Tumor necrosis In vivo (grade, scale 0 to 5) [1]
COc1cc(C(=O)/C(C)=C/c2ccc3c(ccn3CCO)c2)cc(OC)c1OC [Example 1, E-2-Methyl-3-[1-(2-hydroxyethyl)indol-5-yl]-1-(3,4,5-trimethoxyphenyl)propenone]	negative	800	0.97 to 3.29	3.48 to 3.75	119		
COc1cc(C(=O)/C(C)=C/c2ccc3c(ccn3CCO)c2)cc2c1OCO2 [Example 2, E-2-Methyl-3-[1-(2-hydroxyethyl)indol-5-yl]-1-(3-methoxy-4,5-methylenedioxyphenyl)propenone]	negative	600	0.22 to 0.61	1.23 to 1.62	83	> 30000	5 (considerable, >75%)
COc1ccc(OC)c(C(=O)/C(C)=C/c2ccc3c(ccn3CCO)c2)c1 [Example 3, E-2-Methyl-3-[1-(2-hydroxyethyl)-1-H-indol-5-yl]-1-(2,5-dimethoxyphenyl)propenone]	negative	830			112		

From patent US20040229931A1, “1-Aryl-3-(indol-5-yl) prop-2-en-1-ones, compositions containing them and use” (Aventis Pharma S. A., priority 2003, published 2004)
